Test results: PubChem BioAssay (NCI)
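Exposure lasted 48 hours, with cells grown in 96-well plates and compounds tested at five concentrations. TGI marks complete inhibition of growth.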

Assays:
Experiment in all cases: DTP human tumour cell line panel, 48 h
786-0 renal = test system: 786-0 renal
A498 renal = test system: A498 renal
A549 NSCLC = test system: A549 NSCLC
ACHN renal = test system: ACHN renal
CAKI-1 renal = test system: CAKI-1 renal
CCRF-CEM leukemia = test system: CCRF-CEM leukemia
COLO 205 colon = test system: COLO 205 colon
DLD-1 colon = test system: DLD-1 colon
DMS 114 small cell lung = test system: DMS 114 small cell lung
DMS 273 small cell lung = test system: DMS 273 small cell lung
HCC-2998 colon = test system: HCC-2998 colon
HCT-116 colon = test system: HCT-116 colon
HCT-15 colon = test system: HCT-15 colon
HL-60(TB) leukemia = test system: HL-60(TB) leukemia
HOP-18 NSCLC = test system: HOP-18 NSCLC
HOP-62 NSCLC = test system: HOP-62 NSCLC
HOP-92 NSCLC = test system: HOP-92 NSCLC
HT29 colon = test system: HT29 colon
IGROV1 ovarian = test system: IGROV1 ovarian
K-562 leukemia = test system: K-562 leukemia
KM12 colon = test system: KM12 colon
KM20L2 colon = test system: KM20L2 colon
LOX IMVI melanoma = test system: LOX IMVI melanoma
LXFL 529 NSCLC = test system: LXFL 529 NSCLC
M14 melanoma = test system: M14 melanoma
M19-MEL melanoma = test system: M19-MEL melanoma
MALME-3M melanoma = test system: MALME-3M melanoma
MOLT-4 leukemia = test system: MOLT-4 leukemia
NCI-H226 lung = test system: NCI-H226 lung
NCI-H23 lung = test system: NCI-H23 lung
NCI-H460 lung = test system: NCI-H460 lung
NCI-H522 lung = test system: NCI-H522 lung
OVCAR-3 ovarian = test system: OVCAR-3 ovarian
OVCAR-4 ovarian = test system: OVCAR-4 ovarian
OVCAR-5 ovarian = test system: OVCAR-5 ovarian
OVCAR-8 ovarian = test system: OVCAR-8 ovarian
RPMI-8226 leukemia = test system: RPMI-8226 leukemia
RXF 393 renal = test system: RXF 393 renal
RXF-631 renal = test system: RXF-631 renal
SF-268 CNS = test system: SF-268 CNS
SF-295 CNS = test system: SF-295 CNS
SF-539 CNS = test system: SF-539 CNS
SK-MEL-2 melanoma = test system: SK-MEL-2 melanoma
SK-MEL-28 melanoma = test system: SK-MEL-28 melanoma
SK-MEL-5 melanoma = test system: SK-MEL-5 melanoma
SK-OV-3 ovarian = test system: SK-OV-3 ovarian
SN12C renal = test system: SN12C renal
SNB-19 CNS = test system: SNB-19 CNS
SNB-75 CNS = test system: SNB-75 CNS
SNB-78 CNS = test system: SNB-78 CNS
SR leukemia = test system: SR leukemia
SW-620 colon = test system: SW-620 colon
TK-10 renal = test system: TK-10 renal
U251 CNS = test system: U251 CNS
UACC-257 melanoma = test system: UACC-257 melanoma
UACC-62 melanoma = test system: UACC-62 melanoma
UO-31 renal = test system: UO-31 renal
EKVX NSCLC = test system: EKVX NSCLC

Nc1nc2c3c(ncn3CC(O)CO2)n1 (configuration not stated)
TGI (786-0 renal): > 100 µM | TGI (A498 renal): > 100 µM | TGI (A549 NSCLC): > 100 µM | TGI (ACHN renal): > 100 µM | TGI (CAKI-1 renal): > 100 µM | TGI (CCRF-CEM leukemia): > 100 µM | TGI (COLO 205 colon): > 100 µM | TGI (DLD-1 colon): > 100 µM | TGI (DMS 114 small cell lung): > 100 µM | TGI (DMS 273 small cell lung): > 100 µM | TGI (HCC-2998 colon): > 100 µM | TGI (HCT-116 colon): > 100 µM | TGI (HCT-15 colon): > 100 µM | TGI (HL-60(TB) leukemia): > 100 µM | TGI (HOP-18 NSCLC): > 100 µM | TGI (HOP-62 NSCLC): > 100 µM | TGI (HOP-92 NSCLC): > 100 µM | TGI (HT29 colon): 28.6 µM | TGI (IGROV1 ovarian): > 100 µM | TGI (K-562 leukemia): > 100 µM | TGI (KM12 colon): > 100 µM | TGI (KM20L2 colon): > 100 µM | TGI (LOX IMVI melanoma): > 100 µM | TGI (LXFL 529 NSCLC): > 100 µM | TGI (M14 melanoma): > 100 µM | TGI (M19-MEL melanoma): 19.4 µM | TGI (MALME-3M melanoma): > 100 µM | TGI (MOLT-4 leukemia): > 100 µM | TGI (NCI-H226 lung): > 100 µM | TGI (NCI-H23 lung): > 100 µM | TGI (NCI-H460 lung): > 100 µM | TGI (NCI-H522 lung): > 100 µM | TGI (OVCAR-3 ovarian): > 100 µM | TGI (OVCAR-4 ovarian): > 100 µM | TGI (OVCAR-5 ovarian): > 100 µM | TGI (OVCAR-8 ovarian): > 100 µM | TGI (RPMI-8226 leukemia): > 100 µM | TGI (RXF 393 renal): > 100 µM | TGI (RXF-631 renal): > 100 µM | TGI (SF-268 CNS): > 100 µM | TGI (SF-295 CNS): > 100 µM | TGI (SF-539 CNS): > 100 µM | TGI (SK-MEL-2 melanoma): > 100 µM | TGI (SK-MEL-28 melanoma): > 100 µM | TGI (SK-MEL-5 melanoma): > 100 µM | TGI (SK-OV-3 ovarian): > 100 µM | TGI (SN12C renal): > 100 µM | TGI (SNB-19 CNS): > 100 µM | TGI (SNB-75 CNS): 29 µM | TGI (SNB-78 CNS): > 100 µM | TGI (SR leukemia): > 100 µM | TGI (SW-620 colon): > 100 µM | TGI (TK-10 renal): > 100 µM | TGI (U251 CNS): > 100 µM | TGI (UACC-257 melanoma): > 100 µM | TGI (UACC-62 melanoma): > 100 µM | TGI (UO-31 renal): > 100 µM

COc1ccc(/C=C/C(=O)c2sc(Nc3ccc([N+](=O)[O-])cc3)nc2C)cc1
TGI (786-0 renal): > 100 µM | TGI (A498 renal): > 100 µM | TGI (A549 NSCLC): > 100 µM | TGI (ACHN renal): > 100 µM | TGI (CAKI-1 renal): > 100 µM | TGI (CCRF-CEM leukemia): 82 µM | TGI (COLO 205 colon): > 100 µM | TGI (DLD-1 colon): > 100 µM | TGI (DMS 114 small cell lung): > 100 µM | TGI (DMS 273 small cell lung): > 100 µM | TGI (EKVX NSCLC): > 100 µM | TGI (HCC-2998 colon): 83.5 µM | TGI (HCT-15 colon): > 100 µM | TGI (HL-60(TB) leukemia): 67.6 µM | TGI (HOP-18 NSCLC): > 100 µM | TGI (HOP-62 NSCLC): > 100 µM | TGI (HOP-92 NSCLC): 81.5 µM | TGI (IGROV1 ovarian): > 100 µM | TGI (K-562 leukemia): 93.6 µM | TGI (KM12 colon): > 100 µM | TGI (KM20L2 colon): > 100 µM | TGI (LOX IMVI melanoma): > 100 µM | TGI (M19-MEL melanoma): > 100 µM | TGI (MALME-3M melanoma): > 100 µM | TGI (MOLT-4 leukemia): 50.7 µM | TGI (NCI-H23 lung): 85 µM | TGI (NCI-H460 lung): > 100 µM | TGI (NCI-H522 lung): 51.1 µM | TGI (OVCAR-3 ovarian): 89.4 µM | TGI (OVCAR-5 ovarian): > 100 µM | TGI (OVCAR-8 ovarian): > 100 µM | TGI (RPMI-8226 leukemia): 47.9 µM | TGI (RXF 393 renal): 87.9 µM | TGI (RXF-631 renal): > 100 µM | TGI (SF-268 CNS): > 100 µM | TGI (SF-295 CNS): 81.5 µM | TGI (SF-539 CNS): > 100 µM | TGI (SK-MEL-2 melanoma): 48.6 µM | TGI (SK-MEL-28 melanoma): > 100 µM | TGI (SK-MEL-5 melanoma): 46.8 µM | TGI (SK-OV-3 ovarian): > 100 µM | TGI (SN12C renal): > 100 µM | TGI (SNB-19 CNS): > 100 µM | TGI (SNB-75 CNS): > 100 µM | TGI (SNB-78 CNS): > 100 µM | TGI (SW-620 colon): > 100 µM | TGI (TK-10 renal): > 100 µM | TGI (U251 CNS): > 100 µM | TGI (UACC-62 melanoma): > 100 µM | TGI (UO-31 renal): 91.9 µM
